# Experimental data published in patent US4309343A, “Pharmacologically active peptides” (Eli Lilly and Company, priority 1980, dated 1982).
# “And” between values parts separate entries of the source, which are not always exact repeats. Equal values may be shown once. Where a name gives a salt, the structure may show the parent alone.
# Legend:
# [1] = system: mouse (Cox Standard); experiment: mouse hot plate test (mouse jump); type: in vivo; conditions: subcutaneous injection, 15 minutes after administration, hot plate 52° C., dose producing analgesia in 50% of mice
# Procedure: In the mouse hot plate test, an upright acrylic cylinder comprising, as its base, a hot plate surface which is maintained at 52° C. is used. A mouse (Cox Standard) is given, by subcutaneous injection, a predetermined amount of test compound dissolved or suspended in a suitable carrier, and, 15 minutes after administration of the test compound, the mouse is placed on the hot plate surface. The latency in seconds until the mouse jumps from the hot plate surface is measured. […] This must occur in a dose range which produces no motor incoordination or incapacitation. The following Table records ED50 results obtained from this test. By the term "ED50 " is meant that dose which produces analgesia in 50% of the mice tested. Analgesia is defined as a response latency in the presence of test compound that is equal to or greater than the control response latency plus two standard deviations. The percent analgesia data are converted to probits, and the ED50 is calculated by regression analysis of the dose-response data. Each dose response curve must have at least four points, and each point is determined using data from a minimum of ten treated mice and ten control mice.
# [2] = system: mouse vas deferens; experiment: mouse vas deferens test, electrically evoked twitch; type: cell-based; conditions: concentration causing depression of 50% of the electrically evoked contraction; field stimulation 0.15 Hz, 1 msec., 40 V; 37° C.
# Procedure: In the mouse vas deferens test, single mouse vas deferens from mature mice (Cox, 30-40 g.) are suspended in 3 ml. of modified Kreb's solution aerated with 95% O2 -5% CO2 and maintained at 37° C. The twitch induced by field stimulation (0.15 Hz, 1 msec., 40 V) is recorded on a polygraph via an isometric transducer. The test compound is added to the bath in 20 to 30 μl. aliquots. A dose-response curve is constructed by cumulative addition of appropriate amounts of the compound to the bath. Comparison of relative agonist potency is made on the basis of IC50 values (concentration causing depression of 50% of the electrically evoked contraction).
# [3] = system: mice; conditions: cited from earlier work; for analgesic activity upon intracerebroventricular administration: mice, intracerebroventricularly, Buscher et al., Nature, 261, 423 (1976); for analgesic activity when administered parenterally: parenteral administration
Compound,Mouse Jump ED50 [1],IC50 [2],analgesic activity upon intracerebroventricular administration [3],analgesic activity when administered parenterally [3],Mouse Jump ED50 ([1]; Diformate Salt)
"CC(=O)O.CC(=O)O.C[C@@H](NC(=O)[C@@H](N)Cc1ccc(O)cc1)C(=O)NCC(=O)N[C@@H](Cc1ccccc1)C(=O)NCCCCNC(=O)[C@H](Cc1ccccc1)NC(=O)CNC(=O)[C@@H](C)NC(=O)[C@@H](N)Cc1ccc(O)cc1 [Example 1, N,N'-1,4-Butanediylbis-[L-tyrosyl-D-alanyl-glycyl-L-phenylalanylamide], Diacetate Salt]",0.370 mg/kg,2.83 nM,,,
"C[C@@H](NC(=O)[C@@H](N)Cc1ccc(O)cc1)C(=O)NCC(=O)N[C@@H](Cc1ccccc1)C(=O)NCCCCCCCCNC(=O)[C@H](Cc1ccccc1)NC(=O)CNC(=O)[C@@H](C)NC(=O)[C@@H](N)Cc1ccc(O)cc1 [Example 2, N,N'-1,8-Octanediylbis-[L-tyrosyl-D-alanyl-glycyl-L-phenylalanylamide], Diacetate Salt]",> 30 mg/kg,67 nM,,,
CSCC[C@@H](C(N)=O)N(C)C(=O)[C@H](Cc1ccccc1)NC(=O)CNC(=O)[C@@H](C)NC(=O)[C@@H](N)Cc1ccc(O)cc1 [H--LTyr--DAla--Gly--LPhe--L(N--Me)Met--NH2],0.363 mg/kg,12.2 nM,,,
C[C@@H](NC(=O)[C@@H](N)Cc1ccc(O)cc1)C(=O)NCC(=O)N[C@@H](Cc1ccccc1)C(N)=O [H--LTyr--DAla--Gly--LPhe--NH2],0.85 mg/kg,189 nM,,,
H-Tyr-Gly-Gly-Phe-Leu-OH. [leucine enkephalin],,,exhibit analgesic activity,practically devoid of any useful analgesic activity,
H-Tyr-Gly-Gly-Phe-Met-OH [methionine enkephalin],,,exhibit analgesic activity,practically devoid of any useful analgesic activity,
"N,N'-1,4-Butanediylbis-[L-tyrosyl-D-alanyl-glycyl-L-phenylalanyl-L-(N^α -methyl)methioninamide], Diformate Salt [Example 4]",,,,,5.5 mg/kg and 9.85 mg/kg
